This note sets out measurements from US9999609B2, “Methods for treating or preventing fatigue” (SK Biopharmaceuticals Co., Ltd., priority 2009, dated 2018).

Holding throughout (assay type): in vivo
Series [1] concerns hypocretin cell ablated narcoleptic mice (prepororexin/ataxin-3 transgenic) and their littermate wild-type mice. Nature of the series: Sleep parameters (EEG/EMG polygraph) in narcoleptic and wild-type mice after oral dosing. The source says:
The polygraph signal (EEG and EMG) was captured with SleepSign (Kissei Comtech), and the sleep stage was visually scored with 10 sec epoch for wakefulness, non-REM sleep and REM sleep. Scoring criteria are: Wakefulness is characterized by desynchronized low-amplitude, mixed frequency (>4 Hz) EEG and high EMG activity. Rhythmic alpha (8-9 Hz) wave (with high EMG activities) may also appear. Non-REM is characterized by synchronized, high-amplitude, low-frequency (0.25-4 Hz) with reduced EMG activity (compared to wakefulness). EEG activity in REM sleep is similar to that in wakefulness, with desynchronized, mixed frequency low amplitude waves. Rhythmic alpha (8-9 Hz) wave with reduced EMG activities may also appear. […] is reduced even further and in many cases, completely absent. Same muscle twitching may be apparent in the EMG trace during REM sleep.
Three drug doses of the test compound (50, 100 and 150 mg/kg PO) plus vehicle, were orally administered at ZT 2 (2 hours after light on) or ZT14 (2 hours after light off), and the effects on sleep were monitored for 6 hours after the drug administration (the sleep data was collected for 30 hours after the drug injection, and are available for further analysis). The doses for modafinil were 50 and 200 mg/kg PO (plus vehicle), and modafinil was also administered at ZT 2 and […]
If the polygraph signals of some mice were not sufficient to score the sleep stage with accuracy (especially bad EMG), data from these animals were excluded, and the minimum of 5 animals (except for the highest dose of the test compound in wild-type mice in dark period, n=4) were included for the data analysis and number of animals were indicated in the figures.
Effects of test compound and modafinil on the amount of wake, non-REM sleep, REM sleep (cumulative seconds), number of episodes for each sleep stage during 6 hours, and mean wake/sleep-bout lengths (seconds) were analyzed in each animal and the mean of each parameter was calculated in each genotype. The effects of compounds on wake and sleep amounts are useful to evaluate the wake promoting potency, and the number of episodes for each sloop stage and the mean wake/sleep bout length are parameters for evaluating the sleep fragmentation. Amphetamine and modafinil, two main wake-promoting compounds currently used for the treatment of EDS associated with various etiologies (narcolepsy, idiopathic hypersomnia and secondary EDS), are known to increase wake time and prolong wake bout length in normal and EDS conditions.
A comparison of the effects between hypocretin deficient and wild-type mice is very useful in determining the wake-promotion of the test compound is dependent on the availability of hypocretins, and if there is a possible change in the sensitivity of the receptive mechanisms of test compound in narcoleptic mice due to the hypocretin ligand deficiency.

For series [2], the system named is adult human subjects with moderate or severe major depression without psychotic features. Nature of the series: Randomized double-blind placebo- and active-controlled 6-week study in major depression. The conditions noted are these: 20 mg/day. The source says:
This was a randomized, double-blind, parallel-group, active, and placebo-controlled, multicenter study conducted in the U.S. (23 centers) and Canada (4 centers). There were 2 phases: a pretreatment phase (screening/washout and a baseline visit) and a 6-week, double-blind treatment phase. Paroxetine, a positive control, was included to evaluate assay sensitivity. After washout (if needed) of prohibited substances, subjects were randomly assigned (1:1:1:1) to receive the test compound titrated to a target dose of 200 mg/day or 400 mg/day, matching placebo, or a fixed dose (20 mg/day) of paroxetine. Study drug was given twice daily for 6 weeks. Efficacy and safety were assessed weekly during the double-blind phase. Subjects completing the study underwent an Exit Interview (“Your Health and Well-Being”) and completed an Assessment of Benefits of Clinical-trial Drug-treatment (ABCD) questionnaire (U.S. sites only).

The subject of series [3] is C57BL/6J, AKR/J and DBA/2J mice. The experiment in a line: Sleep onset and vigilance states in three inbred mouse strains after IP injection. Here is the method: At least 7 adult male mice of inbred strains C57BL/6J, AKR/J, and DBA/2J were recorded in 2 sessions of 72 continuous hours. The first 24 h in each session are considered as baseline followed the next day by the saline injection and the next day by 150 mg/kg of the test compound in the first session and 5 mg/kg d-amphetamine in the second session. The two sessions were separated by 7 days (wash-out period) and all injections were intraperitoneal (IP) and performed at light onset (9 am) in a volume of 5 ml/kg.

Molecules are shown by their SMILES.

`NC(=O)C[S+]([O-])C(c1ccccc1)c1ccccc1` (stereo not shown) [modafinil]: in series [1] (active (dark) period, ZT14, PO), the effect on wakefulness entry is listed as “dose-dependently increased wakefulness”. Besides, the “wake amount in narcoleptic mice relative to wild-type baseline” value in series [1] (active period, 200 mg/kg PO) was “did not bring the wake amount to that of the wild-type baseline levels”. For the same compound, in series [1] (resting period, PO), the “dose of test compound whose wake promoting effect corresponds to 200 mg/kg of modafinil” value is recorded as around 50 mg/kg and the “effect on REM sleep” value is on record as “did not strongly reduce REM sleep”. In addition, the wake-promoting effects entry in series [1] (resting period, wild-type and hypocretin-deficient narcoleptic mice, PO) is given as “modest”.

With `Fc1ccc([C@@H]2CCNC[C@H]2COc2ccc3c(c2)OCO3)cc1` [paroxetine], in series [2] (6 weeks), the “Insomnia, treatment-emergent adverse event incidence” value was 17%. Also, the “ABCD questionnaire items (of 51) with statistically significant superiority to placebo” value in series [2] (post hoc analyses) was 14 items.

As for `C[C@H](N)Cc1ccccc1` [d-amphetamine], in series [3] (5 mg/kg IP), the “amount of wakefulness compared with 150 mg/kg test compound” value is on record as “failed to induce the same amount of wakefulness as 150 mg/kg of test compound” and the “genotype effect on induced wakefulness (AK vs D2 mice)” value was “genotype-dependent effect”. For the same compound, the “dose-response of induced wakefulness (sleep latency)” value in series [3] (C57BL/6J mice, 1, 2, 4, 5, 8 mg/kg IP) is “dose-dependent manner between 1 and 5 mg/kg”.
